Experimental findings from ChEMBL document CHEMBL1144332, “1,2,4-Benzothiadiazine derivatives as alpha1 and 5-HT1A receptor ligands” (Bioorg Med Chem Lett, 2005) are described below.

In assay [1] the target is T1, Alpha-1B adrenergic receptor (Rattus norvegicus) (UniProt P15823).
T1 sequence (whole entry): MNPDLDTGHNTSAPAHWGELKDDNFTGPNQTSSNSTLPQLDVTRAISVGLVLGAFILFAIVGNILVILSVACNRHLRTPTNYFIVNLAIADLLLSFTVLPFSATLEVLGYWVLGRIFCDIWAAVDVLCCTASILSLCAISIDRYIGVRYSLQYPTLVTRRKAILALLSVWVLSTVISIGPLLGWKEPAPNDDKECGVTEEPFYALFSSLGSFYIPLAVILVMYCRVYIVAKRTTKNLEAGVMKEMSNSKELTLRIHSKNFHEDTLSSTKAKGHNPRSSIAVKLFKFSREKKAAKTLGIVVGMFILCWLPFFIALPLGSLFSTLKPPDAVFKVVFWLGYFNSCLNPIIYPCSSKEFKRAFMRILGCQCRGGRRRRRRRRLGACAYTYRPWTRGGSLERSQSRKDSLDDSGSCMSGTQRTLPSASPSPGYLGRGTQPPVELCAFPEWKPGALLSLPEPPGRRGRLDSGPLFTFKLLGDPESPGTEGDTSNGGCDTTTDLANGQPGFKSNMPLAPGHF
The experiment in a line: Antagonist potency against the alpha-1B adrenergic receptor determined in isolated rat spleen. It counts as functional, tissue-based.

In assay [2] the target is Alpha adrenergic receptor 1A and 1B (Rattus norvegicus) (UniProt P15823+P43140). The assay is described as follows: Selectivity towards alpha 1B and alpha 1A adrenergic receptors. The assay is classed as protein assay.
In assay [3] the target is T2, Alpha-1D adrenergic receptor (Rattus norvegicus) (UniProt P23944).
T2 sequence (whole entry): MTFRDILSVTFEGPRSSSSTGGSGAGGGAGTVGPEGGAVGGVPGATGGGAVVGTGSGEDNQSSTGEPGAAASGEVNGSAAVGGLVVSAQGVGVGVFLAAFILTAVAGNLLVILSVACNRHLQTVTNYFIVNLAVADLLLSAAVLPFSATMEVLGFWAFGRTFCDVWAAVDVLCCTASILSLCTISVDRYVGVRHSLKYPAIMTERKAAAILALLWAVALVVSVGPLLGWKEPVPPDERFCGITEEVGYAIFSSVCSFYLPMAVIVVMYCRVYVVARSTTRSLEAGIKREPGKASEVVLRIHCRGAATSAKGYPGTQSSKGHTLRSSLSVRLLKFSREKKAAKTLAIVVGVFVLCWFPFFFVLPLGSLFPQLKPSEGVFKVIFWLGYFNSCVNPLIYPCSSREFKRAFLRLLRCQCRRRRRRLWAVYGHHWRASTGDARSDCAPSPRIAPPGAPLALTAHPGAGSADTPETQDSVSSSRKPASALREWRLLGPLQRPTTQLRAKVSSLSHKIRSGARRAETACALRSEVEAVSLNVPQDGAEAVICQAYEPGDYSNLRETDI
The experiment in a line: Antagonist potency against the alpha-1D adrenergic receptor was determined in isolated rat thoracic aorta. The assay is classed as functional, tissue-based.

The target of assay [4] is T3, 5-hydroxytryptamine receptor 1A (Homo sapiens, UniProt P08908).
T3 sequence (P08908 whole entry): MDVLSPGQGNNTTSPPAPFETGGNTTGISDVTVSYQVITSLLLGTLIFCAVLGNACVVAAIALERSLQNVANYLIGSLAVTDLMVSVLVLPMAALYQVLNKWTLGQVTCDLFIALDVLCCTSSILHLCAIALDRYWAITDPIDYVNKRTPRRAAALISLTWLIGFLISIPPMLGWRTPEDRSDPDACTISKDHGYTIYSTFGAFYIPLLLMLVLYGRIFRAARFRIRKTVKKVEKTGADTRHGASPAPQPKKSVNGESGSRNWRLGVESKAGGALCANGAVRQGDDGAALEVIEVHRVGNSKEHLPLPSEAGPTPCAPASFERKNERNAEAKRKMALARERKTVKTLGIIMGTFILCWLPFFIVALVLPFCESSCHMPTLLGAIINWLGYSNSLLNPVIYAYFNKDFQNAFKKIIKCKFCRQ
The assay is described as follows: Inhibitory constant value against the 5-hydroxytryptamine 1A receptor.

The species entered for a further assay is Rattus norvegicus. The experiment in a line: Selectivity towards alpha 1D and alpha 1B adrenergic receptors.
Assay [5] in a line: Selectivity towards 5-hydroxytryptamine 1A and alpha 1D adrenergic receptors was determined.
Assay [6] deals with Alpha adrenergic receptor 1A and 1D (Rattus norvegicus) (UniProt P23944+P43140). The assay is described as follows: Selectivity towards alpha 1D and alpha 1A adrenergic receptors. It counts as protein assay.
Assay [7] deals with T4, Alpha-1A adrenergic receptor (Rattus norvegicus) (UniProt P43140).
T4 sequence (whole entry): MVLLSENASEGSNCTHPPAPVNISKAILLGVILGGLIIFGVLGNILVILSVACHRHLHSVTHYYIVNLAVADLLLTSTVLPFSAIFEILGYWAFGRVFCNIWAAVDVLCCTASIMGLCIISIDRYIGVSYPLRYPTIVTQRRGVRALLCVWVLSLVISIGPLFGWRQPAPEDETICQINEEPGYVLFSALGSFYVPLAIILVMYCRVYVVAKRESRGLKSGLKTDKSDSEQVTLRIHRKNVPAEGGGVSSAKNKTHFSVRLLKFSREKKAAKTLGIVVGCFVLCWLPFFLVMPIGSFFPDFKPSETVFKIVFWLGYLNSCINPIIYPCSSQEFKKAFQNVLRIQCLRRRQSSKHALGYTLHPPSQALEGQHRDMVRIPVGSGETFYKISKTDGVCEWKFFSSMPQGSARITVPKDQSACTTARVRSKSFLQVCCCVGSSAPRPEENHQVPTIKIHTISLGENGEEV
The assay is described as follows: Antagonist potency against the alpha-1A adrenergic receptor was determined in isolated rat prostatic vas deferens. The assay is classed as functional, tissue-based.

Assay [8] addresses T5, 5-hydroxytryptamine receptor 1A (Homo sapiens) (UniProt P08908).
T5 sequence (whole entry): T3 sequence (P08908 whole entry)
The assay is described as follows: The maximal stimulation of [35S]GTP-gamma-S, binding (Emax) against the 5-hydroxytryptamine 1A receptor. The assay is classed as functional.

The target of assay [9] is T5, 5-hydroxytryptamine receptor 1A (Homo sapiens). The assay is described as follows: Potency against the 5-hydroxytryptamine 1A receptor determined by using [35S]GTP-gamma-S, binding. It counts as functional.
In assay [10] the target is T3, 5-hydroxytryptamine receptor 1A. The experiment in a line: Inhibitory constant value against 5-hydroxytryptamine 1A receptor.

Consider `COc1ccccc1N1CCN(CC2=NS(=O)(=O)c3ccc(Cl)cc3N2)CC1`, for which the figures for the pKb in assay [1], in [3] and in assay [7] were 6.17, 7.75 and 5.28, respectively. Besides, the Selectivity in [2] stood at 8; in the assay filed under Rattus norvegicus, 38; in assay [5], 0.38; in [6], 295. In addition, in assay [4], the Ki is 46.8 nM.
As to `COc1ccccc1N1CCN(CCN2C(=O)CC3(CCCC3)CC2=O)CC1` [BMY-7378], in assay [8], the Emax came to 26. The pKb in assay [1] came out at 7.48. Further, in assay [4], the Ki is 1.26 nM. This molecule also yielded a pD2 in assay [9] of 9.27.
As to `COc1ccccc1N1CCN(CC2=NS(=O)(=O)c3ccccc3N2)CC1`, the pKb is 5.46 in assay [1], 7.59 in [3] and under 5 in assay [7]. For the same molecule, the Selectivity in assay [2] is over 3; in the assay listed under Rattus norvegicus it was 135; in [5] it was under 0.03; in assay [6], over 389. In assay [10], this molecule showed an inhibitory constant (Ki) of over 1000 nM.
On to `COc1ccccc1N1CCN(CC2Nc3cc(Cl)ccc3S(=O)(=O)N2)CC1` (configuration not stated), for which, in [8], the Emax came out at 23. The pKb in assay [1] was found to be 5.09; in assay [3] it was 5; in assay [7], 5.05. Further, the Selectivity in assay [2] turned out to be 1; in the assay filed under Rattus norvegicus, 1; in assay [5], 1100; in assay [6] it was 1. In assay [4], this molecule showed a Ki of 9.12 nM. Moreover, in assay [9], the pD2 was determined as 6.92.
On to `COc1ccccc1N1CCN(CC2Nc3cc(C)ccc3S(=O)(=O)N2)CC1` (configuration not stated), for which the pKb in assay [1] came out at 6.24; in [3], 5.98; in assay [7], 6. The Selectivity is 2 in [2], 0.55 in the assay listed under Rattus norvegicus, under 10 in assay [5] and 0.95 in [6].
Turning to `COc1ccccc1N1CCN(CC2=NS(=O)(=O)c3ccc(C)cc3N2)CC1`, the pKb was 6.05 in assay [1], 5.5 in assay [3] and under 5 in assay [7]. Moreover, the Selectivity in assay [2] was over 11; in the assay listed under Rattus norvegicus, 0.28; in [6], over 3. The same molecule gave a Ki in [4] of 107 nM.
Turning to `COc1ccccc1N1CCN(CC2Nc3ccccc3S(=O)(=O)N2)CC1` (configuration not stated), the results for the pKb in assay [1], in [3] and in assay [7] were 5.97, 5.34 and 5.81, respectively. Moreover, the Selectivity in [2] amounted to 1.5; in the assay listed under Rattus norvegicus it was 0.23; in [5], 275; in assay [6], 0.35. For the same molecule, in assay [4], the affinity, expressed as Ki, was 16.6 nM.

As usually defined, the pKb is the Kb on a negative log10 scale, so that one unit is a factor of ten. In general, Ki refers to the equilibrium dissociation constant of an inhibitor or competing ligand from its target. A low value points to tighter binding.
